In US9809623B2, “α4β7 peptide monomer and dimer antagonists” (Protagonist Therapeutics, Inc., priority 2014, dated 2017):
pEC50, pIC50: −log10 of the molar value. Numbered stars: 1 amine (or outer) side, 2 acyl side, 3 side chain; on linkers, the order of the positions; unused ones are H or OH. Bridge positions count the residues as written; N and C are the ends. Square brackets hold non-standard residues; d marks the D form. Peptide text beside a SMILES is read from it. I, II: the chains in the order shown. ξ: configuration not given here. Phe(4-tBu) = CC(C)(C)c1ccc(C[C@H](N)C(=O)O)cc1; Diglycolyl = O=C(COCC(=O)[*:2])[*:1]; NMeR = CN[C@@H](CCCNC(=N)N)C(=O)O; β3hE = N[C@@H](CCC(=O)O)CC(=O)O; Thr(3ξ) = CC(O)[C@H](N)C(=O)O; Pen = CC(C)(S)[C@H](N)C(=O)O

What was measured:
[1] = tested on: α4β7 receptor; assay: 7 day oral study, FACS receptor occupancy, α4β7 expression and circulating T cells; assay type: in vivo, cynomolgus monkey
Protocol: In certain embodiments for FACS analysis, heparinized whole blood from animals *e.g., cyanos) is stained with each of two panels of antibodies to evaluate (1) the extent of α4β7 receptor occupancy in samples treated with a peptide dimer compound or peptide monomer compound described herein; and (2) the abundance of circulating α4β7+, αEβ7+, and α4β7+αEβ7+ lymphocyte subsets. Receptor occupancy and integrin expression are assessed within memory CD4 T cells, naïve CD4 T cells, and B cells. To evaluate receptor occupancy, whole blood samples are first treated with 1 mM MnCl2 to allow peptide binding, and then pre-incubated+/−1 uM unlabeled peptide to fully occupy (i.e., block) the α4β7 receptor. Blocked and unblocked samples were stained with 1 nM Alexa 647-labeled peptide, followed by staining with antibodies against α4β7, CD45, CD4, CD45RA, and CD19. Samples are processed to lyse erythrocytes and fix leukocytes, followed by staining with a second-step reagent (streptavidin-BV421) and wash steps. To assess integrin expression and cell subset abundance, whole blood samples are stained with antibodies against α4, β7, and αE, in addition to antibodies against CD45, CD4, CD45RA, and CD19. Samples are processed to lyse erythrocytes and fix leukocytes, followed by staining with a second-step reagent (streptavidin-BV421) and wash steps. The stained samples are analyzed by flow cytometry, collecting a constant sample volume to allow calculation of absolute cell counts.
To further evaluate the in vivo properties of Peptide X in a higher species, cynomolgus monkeys were dosed with Peptide X for 7 days. Dosing was oral (nasogastric intubation) once daily. Whole blood (about 3.5 mL) was collected on Day 0 (prior to dosing) and Day 6 (1 hour post the last dose) for PK and PD analysis. On Day 6, blood was also collected from a non-dosed animal. For PD, FACS analysis was used to measure receptor occupancy, down-regulation of α4β7 expression and circulating levels of T cells expressing the integrin α4β7.
For FACS analysis, heparinized whole blood from the cynos was stained with each of two panels of antibodies to evaluate (1) the extent of α4β7 receptor occupancy in Peptide X-treated samples and (2) the abundance of circulating α4β7+, αEβ7+, and α4β7+αEβ7+ lymphocyte subsets. Receptor occupancy and integrin expression were assessed within memory CD4 T cells, naïve CD4 T cells, and B cells. To evaluate receptor occupancy, whole blood samples were first treated with 1 mM MnCl2 to allow Peptide X binding, and then pre-incubated+/−1 uM unlabeled Peptide X to fully occupy (i.e., block) the α4β7 receptor. […] All stained samples were analyzed by flow cytometry, collecting a constant sample volume to allow calculation of absolute cell counts.

[2] = tested on: C57BL/6 male mice, DSS colitis; assay type: in vivo
Protocol: Colitis was induced in C57BL/6 male mice (10 animals per group) by exposure to 3% DSS-treated drinking water from day 0 to day 5, when animals were shifted to normal drinking water. Once daily, animal deaths were recorded, and surviving animals were weighed and assessed visually for the presence of diarrhea and/or bloody stool. Immediately prior to sacrifice on day 9, colitis severity was assessed in all animals using video endoscopy, and the resulting images were scored for colitis severity by an observer blinded to group identity.
Starting on day 0, mice were given twice-daily oral doses of either a vehicle/sham control (Group 1) or Peptide X (Group 2: 10 mg/kg, PO, BID). On day 9, only the AM treatment dose was administered. Animals in Group 2 also were administered Peptide X in their drinking water at a concentration of 0.2 mg/mL. The drinking water bottle weights for Groups 1 and 2 were measured, and water consumption was used to estimate the peptide dose ingested via the drinking water. Based on daily water consumption, the average daily Peptide X dose from the combination of oral gavage and drinking water was estimated to be 49 mg/kg.
Mice were sacrificed on day 9, approximately four hours after the final of gavage dose administration. Spleen, Peyer's patches (PP), mesenteric lymph nodes (MLN), and blood were collected from each animal and processed for FACS analysis of α4 and β7 expression on TH memory cells. Takedown and FACS analysis occurred on the same day.
For PK measurements, colon sections from the proximal and distal colon were collected at ˜4 hours after the last AM dose and analyzed by mass spectrometry. Exposure in the proximal colon was approximately 3-fold higher than that in the distal colon (FIG. 12). The concentration of Peptide X in the blood was 84-fold and 31-fold lower compared to that in the proximal and distal colon, respectively. Nonetheless at this time point, the plasma concentration was ˜80-fold greater than the Peptide IC50 value for blocking α4β7 binding to MAdCAM.

[3] = target: αLβ2 (Homo sapiens, UniProt P05107+P20701); assay: IC50 for αLβ2 (assay not further described)
Chain of αLβ2 (P20701 26-1170): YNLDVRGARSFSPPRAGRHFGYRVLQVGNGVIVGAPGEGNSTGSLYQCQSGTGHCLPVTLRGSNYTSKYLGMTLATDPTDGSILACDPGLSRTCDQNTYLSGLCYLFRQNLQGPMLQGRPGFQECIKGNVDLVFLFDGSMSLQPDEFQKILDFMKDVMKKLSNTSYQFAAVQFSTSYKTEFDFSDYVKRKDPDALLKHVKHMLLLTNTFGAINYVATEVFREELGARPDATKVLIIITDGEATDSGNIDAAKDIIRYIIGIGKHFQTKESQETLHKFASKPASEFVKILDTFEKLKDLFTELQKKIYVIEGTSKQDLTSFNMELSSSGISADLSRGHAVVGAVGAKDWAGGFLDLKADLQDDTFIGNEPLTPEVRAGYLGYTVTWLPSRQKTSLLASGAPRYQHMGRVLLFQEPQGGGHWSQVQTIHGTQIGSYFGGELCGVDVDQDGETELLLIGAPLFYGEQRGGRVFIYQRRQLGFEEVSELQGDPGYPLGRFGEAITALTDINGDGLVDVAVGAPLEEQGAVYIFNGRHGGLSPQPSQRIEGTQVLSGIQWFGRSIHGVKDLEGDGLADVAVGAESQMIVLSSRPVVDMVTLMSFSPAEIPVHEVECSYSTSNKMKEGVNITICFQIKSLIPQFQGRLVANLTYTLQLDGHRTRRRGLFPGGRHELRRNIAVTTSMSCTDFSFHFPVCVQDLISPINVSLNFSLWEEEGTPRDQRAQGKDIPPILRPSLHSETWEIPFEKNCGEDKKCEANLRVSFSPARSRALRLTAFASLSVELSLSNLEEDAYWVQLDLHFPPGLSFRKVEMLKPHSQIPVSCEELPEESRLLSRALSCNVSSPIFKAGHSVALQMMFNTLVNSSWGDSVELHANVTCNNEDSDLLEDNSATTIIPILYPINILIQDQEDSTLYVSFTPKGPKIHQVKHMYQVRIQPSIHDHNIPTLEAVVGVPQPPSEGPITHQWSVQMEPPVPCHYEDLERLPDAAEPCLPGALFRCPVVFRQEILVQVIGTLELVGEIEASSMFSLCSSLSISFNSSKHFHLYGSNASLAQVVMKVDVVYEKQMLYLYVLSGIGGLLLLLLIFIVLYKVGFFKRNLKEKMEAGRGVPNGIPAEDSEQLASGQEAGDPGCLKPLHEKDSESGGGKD
Chain of αLβ2 (P05107 23-769): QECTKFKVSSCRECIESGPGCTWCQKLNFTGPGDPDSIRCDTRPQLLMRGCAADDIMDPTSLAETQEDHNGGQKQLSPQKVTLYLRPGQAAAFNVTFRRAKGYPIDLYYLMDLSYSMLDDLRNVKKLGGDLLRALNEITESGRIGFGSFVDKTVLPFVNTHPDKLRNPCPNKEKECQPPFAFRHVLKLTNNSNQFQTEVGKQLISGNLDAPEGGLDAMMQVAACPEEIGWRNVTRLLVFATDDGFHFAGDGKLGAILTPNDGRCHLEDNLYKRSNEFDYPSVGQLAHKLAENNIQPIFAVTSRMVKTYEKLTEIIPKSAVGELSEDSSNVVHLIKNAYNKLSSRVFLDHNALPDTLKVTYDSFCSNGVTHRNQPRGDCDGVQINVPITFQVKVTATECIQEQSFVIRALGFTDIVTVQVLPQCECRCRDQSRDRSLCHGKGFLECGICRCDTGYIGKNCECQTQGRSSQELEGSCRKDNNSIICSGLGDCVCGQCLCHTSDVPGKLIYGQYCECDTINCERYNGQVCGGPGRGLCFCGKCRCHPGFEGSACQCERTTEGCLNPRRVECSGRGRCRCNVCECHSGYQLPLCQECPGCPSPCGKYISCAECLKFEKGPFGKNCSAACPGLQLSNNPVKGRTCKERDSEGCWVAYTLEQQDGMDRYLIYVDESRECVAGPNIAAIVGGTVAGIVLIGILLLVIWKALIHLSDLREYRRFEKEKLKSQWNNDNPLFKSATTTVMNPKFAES
Protocol: Biochemical competition ELISA assays were performed for α4β7 and α4β1 integrins. The ELISA assay for α4β7 is based on binding of MAdCAM-1 to immobilized α4β7, whereas the α4β1 ELISA relies on binding of soluble α4β1 to immobilized VCAM-1. These assays are described in Example 2. Under 1 mM Mg^2+ binding conditions, the IC50 for Peptide X was 3 nM and >10,000 nM for α4β7 and α4β1, respectively. In addition, the IC50 for Peptide X was >100 uM for both α4β1 and αLβ2. The IC50 of Peptide X for α4β7 T cells was 1 nM.

[4] = 10 mg/kg PO BID plus 0.2 mg/mL in drinking water, day 9

CC(=O)N[C@@H]1C(=O)N(C)[C@@H](CCCNC(=N)N)C(=O)N[C@@H](CO)C(=O)N[C@@H](CC(=O)O)C(=O)N[C@@H](C(C)O)C(=O)N[C@@H](CC(C)C)C(=O)N[C@H](C(=O)N[C@@H](Cc2ccc(C(C)(C)C)cc2)C(=O)N[C@@H](CCC(=O)O)CC(=O)N[C@H](CCCCNC(=O)COCC(=O)NCCCC[C@@H](NC(=O)C[C@H](CCC(=O)O)NC(=O)[C@H](Cc2ccc(C(C)(C)C)cc2)NC(=O)[C@H]2NC(=O)[C@H](CC(C)C)NC(=O)[C@H](C(C)O)NC(=O)[C@H](CC(=O)O)NC(=O)[C@H](CO)NC(=O)[C@H](CCCNC(=N)N)N(C)C(=O)[C@@H](NC(C)=O)C(C)(C)SSC2(C)C)C(N)=O)C(N)=O)C(C)(C)SSC1(C)C (stereo partly drawn) [Peptide X, [Ac-Pen-(N-Me-Arg)-Ser-Asp-Thr-Leu-Pen-(Phe(4-tBu))-(β-homoGlu)-(D-Lys)]2-DIG] (I: Ac-[Pen][NMeR]SD[Thr(3ξ)]L[Pen][Phe(4-tBu)][β3hE][dK]-NH2 / II: Ac-[Pen][NMeR]SD[Thr(3ξ)]L[Pen][Phe(4-tBu)][β3hE][dK]-NH2; disulfide I:1-I:7, II:1-II:7; linker I:10-II:10 via Diglycolyl)
α4β7 expression on CD4 memory T cells ([1]; all doses, Day 6 vs Day 0): decreased at all doses | pEC50 ([1]; by extrapolation, estimated, read-out: plasma concentration sufficient to occupy 50% of the α4β7 receptors in the blood): ~9.46 | percentage of α4β7+ memory T cells normalized to total CD4 cells ([1]; cyno blood): increase | percent receptor occupancy in blood ([1]; highest dose (75 mg/kg/day), oral once daily 7 days, CD4 memory α4β7+ T cells): exceeded 90% | endoscopy score (mean±SD) [2, 4]: 1.78±1.5 | reduction of endoscopy scores vs vehicle [2, 4]: 32% | effect on weight loss, fluid intake, colon weight or length, presence of bloody stool and diarrhea ([2]; 10 mg/kg PO BID plus drinking water): no significant effect | visual assessment of endoscopy images ([2]; compared to the vehicle control): reduced colonic friability and improved mucosal healing | Exposure in the proximal colon higher than in the distal colon ([2]; mouse, in vivo): approximately 3 fold | decrease in percentage of α4β7+ memory cells relative to total cells in Peyer's Patches ([2]; vs vehicle, day 9): 55% | decrease in percentage of α4β7+ memory cells relative to total cells in the MLN ([2]; vs vehicle, day 9): 23% | increase in total α4β7 memory cells per mL blood ([2]; vs vehicle, day 9): 42% | increase in total α4β7 memory cells recovered from the spleen ([2]; vs vehicle, day 9): 73% | pIC50 [3]: < 4.00
